System: 616215-338-R-J1-PDC complex spheroid viability
Assay: Anticancer human tumor 616215-338-R-J1-PDC patient-derived colon adenocarcinoma cell line growth inhibition [POLQ]
Settings: for IC50: curve of first compound; for viability, T/C: stronger effect = lower value
Procedure, shortened: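 Patient-derived tumour cells were co-cultured with HUVEC and mesenchymal stem cells as multicellular spheroids at 37 °C. They were treated with POLQ inhibitors (novobiocin, ART-558, RP6685) alone or combined with other agents. Top concentrations were at or near clinical Cmax (otherwise 10 microM; SN-38 at 1 microM), decreasing in half-log steps.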

[1] = second compound 0.0316 µM, first compound 0.0316 µM
[2] = second compound 0.0316 µM, first compound 0.1 µM
[3] = second compound 0.0316 µM, first compound 0.316 µM
[4] = second compound 0.0316 µM, first compound 1 µM
[5] = second compound 0.0316 µM, first compound 3.16 µM
[6] = second compound 0.0316 µM, first compound 10 µM
[7] = second compound 0.1 µM, first compound 0.0316 µM
[8] = second compound 0.1 µM, first compound 0.1 µM
[9] = second compound 0.1 µM, first compound 0.316 µM
[10] = second compound 0.1 µM, first compound 1 µM
[11] = second compound 0.1 µM, first compound 3.16 µM
[12] = second compound 0.1 µM, first compound 10 µM
[13] = second compound 0.316 µM, first compound 0.0316 µM
[14] = second compound 0.316 µM, first compound 0.1 µM
[15] = second compound 0.316 µM, first compound 0.316 µM
[16] = second compound 0.316 µM, first compound 1 µM
[17] = second compound 0.316 µM, first compound 3.16 µM
[18] = second compound 0.316 µM, first compound 10 µM
[19] = second compound 1 µM, first compound 0.0316 µM
[20] = second compound 1 µM, first compound 0.1 µM
[21] = second compound 1 µM, first compound 0.316 µM
[22] = second compound 1 µM, first compound 1 µM
[23] = second compound 1 µM, first compound 3.16 µM
[24] = second compound 1 µM, first compound 10 µM
[25] = second compound 3.16 µM, first compound 0.0316 µM
[26] = second compound 3.16 µM, first compound 0.1 µM
[27] = second compound 3.16 µM, first compound 0.316 µM
[28] = second compound 3.16 µM, first compound 1 µM
[29] = second compound 3.16 µM, first compound 3.16 µM
[30] = second compound 3.16 µM, first compound 10 µM
[31] = second compound 10 µM, first compound 0.0316 µM
[32] = second compound 10 µM, first compound 0.1 µM
[33] = second compound 10 µM, first compound 0.316 µM
[34] = second compound 10 µM, first compound 1 µM
[35] = second compound 10 µM, first compound 3.16 µM
[36] = second compound 10 µM, first compound 10 µM
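Further: spheroids exposed to compounds for one week before readout.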
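Wherever viability, T/C is given: percent viability relative to DMSO vehicle wells taken as 100%.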

SMILES: C=CC(=O)N1CCN(c2nc(=O)n(-c3c(C)ccnc3C(C)C)c3nc(-c4c(O)cccc4F)c(F)cc23)C(C)C1 (centres undefined) + Nc1ccc(C#CCN(C(=O)Cc2ncc(C(F)(F)F)cc2C(F)(F)F)c2ccc(F)cc2)nn1
- IC50 (second compound 0.0316 µM): > 10 µM
- IC50 (second compound 0.1 µM): > 10 µM
- IC50 (second compound 0.316 µM): > 10 µM
- IC50 (second compound 1 µM): > 10 µM
- IC50 (second compound 3.16 µM): > 10 µM
- IC50 (second compound 10 µM): > 10 µM
- viability, T/C [1]: 115%
- viability, T/C [2]: 99.3%
- viability, T/C [3]: 96.9%
- viability, T/C [4]: 99.6%
- viability, T/C [5]: 89.2%
- viability, T/C [6]: 66.8%
- viability, T/C [7]: 103%
- viability, T/C [8]: 101%
- viability, T/C [9]: 98.3%
- viability, T/C [10]: 90.6%
- viability, T/C [11]: 85.5%
- viability, T/C [12]: 63.5%
- viability, T/C [13]: 95.2%
- viability, T/C [14]: 96.7%
- viability, T/C [15]: 95.2%
- viability, T/C [16]: 91%
- viability, T/C [17]: 78.8%
- viability, T/C [18]: 62.2%
- viability, T/C [19]: 96.3%
- viability, T/C [20]: 95.2%
- viability, T/C [21]: 96.6%
- viability, T/C [22]: 94.6%
- viability, T/C [23]: 84.4%
- viability, T/C [24]: 67.3%
- viability, T/C [25]: 92.6%
- viability, T/C [26]: 89.2%
- viability, T/C [27]: 97.7%
- viability, T/C [28]: 93.8%
- viability, T/C [29]: 85%
- viability, T/C [30]: 67%
- viability, T/C [31]: 88.2%
- viability, T/C [32]: 94.4%
- viability, T/C [33]: 95.2%
- viability, T/C [34]: 82.9%
- viability, T/C [35]: 87.7%
- viability, T/C [36]: 65.4%

SMILES: CC(C)n1c(=O)n(C)c2cnc3cc(F)c(-c4ccc(OCCCN5CCCCC5)nc4)cc3c21 + Nc1ccc(C#CCN(C(=O)Cc2ncc(C(F)(F)F)cc2C(F)(F)F)c2ccc(F)cc2)nn1
- IC50 (second compound 0.0316 µM): > 10 µM
- IC50 (second compound 0.1 µM): > 10 µM
- IC50 (second compound 0.316 µM): > 10 µM
- IC50 (second compound 1 µM): > 10 µM
- IC50 (second compound 3.16 µM): > 10 µM
- IC50 (second compound 10 µM): > 10 µM
- viability, T/C [1]: 95%
- viability, T/C [2]: 92.2%
- viability, T/C [3]: 103%
- viability, T/C [4]: 101%
- viability, T/C [5]: 111%
- viability, T/C [6]: 103%
- viability, T/C [7]: 93.2%
- viability, T/C [8]: 110%
- viability, T/C [9]: 110%
- viability, T/C [10]: 89.4%
- viability, T/C [11]: 103%
- viability, T/C [12]: 96.4%
- viability, T/C [13]: 96.8%
- viability, T/C [14]: 97.5%
- viability, T/C [15]: 99.5%
- viability, T/C [16]: 97.1%
- viability, T/C [17]: 97.7%
- viability, T/C [18]: 99.2%
- viability, T/C [19]: 107%
- viability, T/C [20]: 99.8%
- viability, T/C [21]: 83.1%
- viability, T/C [22]: 104%
- viability, T/C [23]: 97.4%
- viability, T/C [24]: 86.8%
- viability, T/C [25]: 112%
- viability, T/C [26]: 97.8%
- viability, T/C [27]: 84.7%
- viability, T/C [28]: 90.6%
- viability, T/C [29]: 117%
- viability, T/C [30]: 96.2%
- viability, T/C [31]: 99.5%
- viability, T/C [32]: 79.3%
- viability, T/C [33]: 103%
- viability, T/C [34]: 103%
- viability, T/C [35]: 76.9%
- viability, T/C [36]: 97.5%
